The term IC50 denotes the midpoint of a concentration-inhibition curve. High values mean weaker potency, low ones greater potency.

The text below walks through data of article PMC4122355, “Inhibitor of the Tyrosine Phosphatase STEP Reverses Cognitive Deficits in a Mouse Model of Alzheimer's Disease” (PLoS Biology, 2014).

Some results are limits rather than exact numbers.

For one data set, the target named is T1, SHP-2 (Homo sapiens, UniProt Q06124).
T1 construct: GST (N); made in house; host or cells: E. coli BL21 (DE3)
T1 sequence (Q06124 1-593): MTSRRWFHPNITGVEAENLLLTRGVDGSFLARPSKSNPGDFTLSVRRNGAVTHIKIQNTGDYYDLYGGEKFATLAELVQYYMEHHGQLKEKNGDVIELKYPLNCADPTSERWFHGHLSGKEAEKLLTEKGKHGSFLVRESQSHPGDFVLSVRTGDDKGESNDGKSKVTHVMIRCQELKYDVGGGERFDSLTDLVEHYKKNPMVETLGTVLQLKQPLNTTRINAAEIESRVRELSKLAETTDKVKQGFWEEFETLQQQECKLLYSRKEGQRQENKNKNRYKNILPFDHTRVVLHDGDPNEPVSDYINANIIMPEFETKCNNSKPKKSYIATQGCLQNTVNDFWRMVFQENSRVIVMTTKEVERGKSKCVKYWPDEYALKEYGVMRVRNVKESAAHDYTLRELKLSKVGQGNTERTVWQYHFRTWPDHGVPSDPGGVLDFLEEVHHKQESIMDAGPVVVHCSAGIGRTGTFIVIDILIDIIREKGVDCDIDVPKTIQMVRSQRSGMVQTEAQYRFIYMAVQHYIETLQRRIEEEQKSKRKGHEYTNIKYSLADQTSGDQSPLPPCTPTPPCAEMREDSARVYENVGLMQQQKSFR
Description: Selectivity pNPP assay, full-length PTPs: SHP-2. Particulars: full-length PTP, 10 nM, 500 µM pNPP. In kind it is biochemical. The text has this:
(§1) Constructs were transformed into BL21 (DE3) E. coli cells. Fusion proteins were purified on a glutathione sepharose column.

The subject of a further data set is 3xTg-AD and WT mice. Description: Morris water maze (MWM), reference memory version. The class given is in vivo, mouse. On the procedure:
The reference memory version of the MWM task was performed as described previously. A crossover design was not used in the MWM task, as the mice were randomly assigned to each treatment condition and can be exposed to the task only once. Briefly, animals were trained to swim in a 1.4 m diameter pool to find a submerged platform (14 cm in diameter) located 1 cm below the surface of water (24°C), rendered opaque by the addition of nontoxic white paint. Animals were pseudo-randomly started from a different position at each trial and used distal visual-spatial cues to find the hidden escape platform that remained in the center of the same quadrant throughout all training days. Training measures included escape latency to reach the platform, swim speed, and thigmotaxis. […] At 24 h after the acquisition phase, the platform was removed and a probe trial of 90 s was given to evaluate the number of entries in a circular zone (three times the platform diameter) positioned around the previous platform location (target zone) and in the opposite quadrants. To assess visual deficits and motivation to escape from water, the probe test was followed by a cued task (60 s; three trials per animal) during which the platform was visible. The visible platform was moved to different locations between each trial. After each trial, animals were immediately placed under a warming lamp to dry to prevent hypothermia. […] Behavioral data from training, probe, and cued trials were acquired and analyzed using the ANY-maze automated tracking system (Stoelting, IL, USA).

Data set [1] in a line: Stability in imidazole buffer by 19F NMR. The class given is physicochemical. Particulars: 1 h. As for the experimental part: The tube was allowed to incubate at ambient temperature with shaking for 1 h. The mixture was diluted with 150 µL of DMSO-d6 and transferred to an NMR tube containing a capillary of trifluoroacetic acid as an external standard (−76.55 ppm). The stability of the compound in the buffer was confirmed by observing no differences in the sensitive ^19F-NMR spectra (Figure S4). As a control for compound modification, the experiment was repeated with the addition of 1 mM GSH in the incubation buffer.

The conditions of data set [2]: cited from earlier work.
The target of the next data set is T2, HePTP (Homo sapiens, UniProt P35236).
T2 construct: Full-length HePTP and PTP-SL proteins were purchased from Abnova; purchased Abnova (Taipei, Taiwan)
T2 sequence (P35236 1-360): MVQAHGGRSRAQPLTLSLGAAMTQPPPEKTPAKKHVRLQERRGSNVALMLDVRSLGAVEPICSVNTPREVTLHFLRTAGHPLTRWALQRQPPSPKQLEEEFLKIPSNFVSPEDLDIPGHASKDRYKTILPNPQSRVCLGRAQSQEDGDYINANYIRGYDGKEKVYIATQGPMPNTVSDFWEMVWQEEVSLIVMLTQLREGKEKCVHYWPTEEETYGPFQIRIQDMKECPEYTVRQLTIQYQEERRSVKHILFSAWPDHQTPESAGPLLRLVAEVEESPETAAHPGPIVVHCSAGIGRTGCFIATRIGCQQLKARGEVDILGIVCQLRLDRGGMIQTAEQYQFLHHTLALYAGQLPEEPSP
Description: Selectivity pNPP assay, full-length PTPs: HePTP. The class given is biochemical. Particulars: full-length PTP, 10 nM, 500 µM pNPP.
From the text: as §1

The next data set deals with cortical cultures. Description: LDH release toxicity assay in cortical cultures. In kind it is cell-based. To be noted: up to 100 µM, up to 48 h, compared to positive controls. As for the experimental part: Bovine LDH was used as a LDH-positive control. The media was collected and analyzed for LDH. The assay quantitatively measures LDH, a stable cytosolic enzyme that is released upon cell lysis. Released LDH in culture supernatants is measured with a 30-min coupled enzymatic assay, which results in the conversion of a tetrazolium salt (INT) into a red formazan product. The amount of color formed is proportional to the number of lysed cells.
Background: LDH leaks from cells whose membrane has failed.

Data set [3] has as its system GluN2B (Y1472), Pyk2 (Y402), ERK1/2 (Y204/187) in cortex. Description: Tyr phosphorylation of STEP substrates in cortex of WT mice after i.p. injection. In kind it is in vivo, mouse. To be noted: C57BL/6 mice, 10 mg/kg i.p., 3 h postinjection, relative to vehicle. As for the experimental part: Wild-type, male C57BL/6 mice (3–6 mo) were used for all studies. […] Cortical tissues were dissected out 3 h postinjection and processed for subcellular fractionation. […] Homogenates were centrifuged at 800 × g to remove nuclei and large debris (P1). Synaptosomal fractions (P2) were prepared from S1 by centrifugation at 9,200 × g for 15 min. The P2 pellet was washed twice and was resuspended in TEVP buffer. […] Samples were prepared and resolved by SDS-PAGE, transferred to nitrocellulose membrane, and incubated with phospho-specific antibodies (anti-pY^204/187 ERK1/2, anti-pY^402 Pyk2, anti-pY^1472 GluN2B) or total protein antibodies (anti-ERK2, anti-Pyk2, and anti-NR2B) overnight at 4°C. Immunoreactivity was visualized using a Chemiluminescent substrate kit (Pierce Biotechnology, Rockford, IL) and detected using a G:BOX with the image program GeneSnap (Syngene, Cambridge, UK). All densitometric quantifications were performed using the Genetools program.

The test system of a further data set is mice. The arrangement: method as in earlier work. To be noted: cited from earlier work.

In turn, `Cl.Nc1cc(C(F)(F)F)cc2c1SSSSS2` [TC-2153, 8-(trifluoromethyl)-1,2,3,4,5-benzopentathiepin-6-amine hydrochloride] displayed an IC50 on SHP-2 of 6.9 µM. For the same molecule, in the data set on 3xTg-AD and WT mice (3xTg-AD mice, 24 h after last acquisition day), the “MWM probe trial, target zone” value was “spent as much time as WT mice in the target zone”. The “MWM acquisition phase escape latency” value in the data set with 3xTg-AD and WT mice (3xTg-AD mice, daily injection 3 h prior to training, days 5 and 6) is recorded as “reversed memory deficits”. Besides, the “MWM cued trial escape latency, AD mice” value in the data set on 3xTg-AD and WT mice (AD-TC, visible platform, AD-Veh 15.3±3.0) stood at 16.0 ± 2.3 s. For the same molecule, the “MWM cued trial escape latency, WT mice” value in the data set with 3xTg-AD and WT mice (WT-TC, visible platform, WT-Veh 15.1±1.7) was 15.6 ± 1.7 s. Moreover, the “Stability with GSH (19F NMR)” value in data set [1] (1 mM GSH in pH 7.0 imidazole buffer) is “compound modification clearly observed”. For the same molecule, the “Stability in assay conditions (19F NMR)” value in data set [1] (pH 7.0 imidazole buffer) was “stable and did not degenerate in the assay conditions”. For the same molecule, the “LD50 (acute toxicity)” value in data set [2] was > 1,000 mg/kg. Besides, the IC50 on HePTP came out at 0.3635 ± 0.0012 µM. For the same molecule, the “LDH release (neuronal cell death)” value in the data set with cortical cultures was “no significant effect on LDH release”. Besides, in data set [3], the “pERK1/2 in cortex (P2 fraction)” value was 2.52±0.16, the “pGluN2B in cortex (P2 fraction)” value came to 1.66±0.28 and the “pPyk2 in cortex (P2 fraction)” value is 1.80±0.30. The “Behavioural effects taken as evidence of crossing the blood brain barrier” value in the data set on mice is “anxiolytic and anticonvulsant effects”.
